Converted amounts (≈) assume the structure as drawn. One block for each compound: values may come before it. Non-standard residues stand in square brackets, D forms with d. Residues, ends and D or L forms follow the SMILES beside them. Phe(3,4-F2) = N[C@@H](Cc1ccc(F)c(F)c1)C(=O)O
Tests used:
rabbit red blood cells = assay type: cell-based; conditions: red cells of rabbit, 1 h
Procedure: Fresh rabbit blood ([…]) was collected and centrifuged at 500 g for 5 min, a supernatant was discarded, and red blood cells were repeatedly washed with phosphate-buffered saline (PBS, 0.01 M, pH 7.4) until the supernatant was clear. The red blood cells (RBCs) were resuspended to 10 mL, and diluted 25-fold with PBS (0.01 M, pH 7.4) to prepare a red blood cell suspension with a concentration of about 2×10^8 RBC/mL. The AMPs were subjected to gradient dilution with normal saline (0.85%, w/v, NaCl) according to a multiple dilution method, final concentrations of the SMPs were 1.95, 3.9, 7.8, 15.6, 31.3, 62.5, 125, 250, 500, 1000, and 2000 μg/mL. 100 μl of polypeptide solution was taken and added to a 96-well plate with 5 replicates for each concentration; 100 μl of rabbit blood with a red blood cell count of about 2×10^8 RBC/mL was then added to each well, the plate was incubated at 37° C. for 1 h, centrifuged at 500 g for 5 min, 100 μl of supernatant was taken and transferred to a new 96-well plate, and an optical density (OD) at a wavelength of 541 nm was measured using a microplate reader. Triton X-100 (10 mg/mL as a starting concentration, two-fold gradient dilution) was used as a positive control group. A hemolysis rate was calculated using the following formula: Hemolysis rate (%)=[(OD541 of experimental group-OD541 of negative control group)/(OD541 of positive control group−OD541 of negative control group)]×100% Specific results of the hemolysis test are shown in Table 6. Minimum hemolytic concentration (MHC): a lowest drug concentration that can cause 10% hemolysis.

[1] = tested on: Staphylococcus aureus (NRS 384); test: microbe, parasite or virus in culture; assay type: cell-based
Excerpt: According to the Standards of Clinical and Laboratory Standards Institute (CLSI) of the USA for antimicrobial drug susceptibility test operation standards, a micronutrient serial twofold dilution method was used to determine minimum inhibitory concentrations (MICs) of all 60 peptides (S/N: LV-1˜LV-60) against Staphylococcus aureus (NRS 384). The experiment was repeated 5 times in parallel. […] An antibacterial drug Levofloxacin and an AMP Cbf-K16 (sequence of Cbf-K16: […]) were used as positive controls to evaluate the antibacterial effect of the antimicrobial peptides on Staphylococcus aureus (NRS 384).

[2] = tested on: Methicillin-resistant Staphylococcus aureus (MRSA); assay type: in vivo, ICR mice; conditions: topical formulation 1 mg/mL, 0.1 mL twice a day for 4 days, mouse back skin infection
Procedure: (§1) Both female and male ICR mice were used in the test, half of the female and male mice were taken and randomly assigned into groups, with 10 mice in each group, and kept in separate cages. The mice were divided into a blank group, a model group, a positive control Methicillin group, and topical formulation groups of AMPs LV-1 to LV-30. Suspensions of Methicillin-sensitive Staphylococcus aureus (NRS 384) and Methicillin-resistant Staphylococcus aureus (MRSA) were prepared, and their concentrations were adjusted to a concentration of 5×10^6 CFU/mL for subsequent use. Hair on backs of the mice was shaved with a shaver, wound was created on back skin of each mouse using a biopsy punch, and the wound was then infected with Methicillin-sensitive Staphylococcus aureus and Methicillin-resistant Staphylococcus aureus (0.1 mL, 5×10^6 CFU/mL) to establish infection models. Except for the blank group and the model group, all other groups received corresponding topical formulations applied directly to the infected areas, with a dose of 0.1 mL, twice a day for 4 consecutive days. On the day following the final administration, skin from the infected sites of each group was aseptically collected, and an antibacterial rate was calculated.

[3] = tested on: Methicillin-sensitive Staphylococcus aureus (NRS 384); assay type: in vivo, ICR mice; conditions: topical formulation 1 mg/mL, 0.1 mL twice a day for 4 days, mouse back skin infection
Procedure: as §1

[4] = tested on: Staphylococcus aureus (NRS 384); conditions: 37° C., 3 h
Procedure: Trypsin (250 U/mg, pH=8.0) and AMPs (LV-1 to LV-30) were mixed in a ratio of 1:10 (w/w) and added to a reaction buffer (0.2 M sodium phosphate, 1 mM CaCl2), pH 7.5), and then incubated at 37° C. for 3 h.

- MIC against Staphylococcus aureus (NRS 384) ([1]; NRS 384): 4 µg/mL (≈ 2.52 µM)
Compound: CC(=O)N[C@@H](CCCCN)C(=O)N[C@@H](CCCCN)C(=O)N[C@@H](CC(C)C)C(=O)N[C@@H](CC(C)C)C(=O)N[C@@H](Cc1ccc(F)c(F)c1)C(=O)N[C@@H](CCCNC(=N)N)C(=O)N[C@@H](CC(C)C)C(=O)N[C@@H](CCCCN)C(=O)N[C@@H](Cc1ccc(F)c(F)c1)C(=O)N[C@@H](CCCNC(=N)N)C(=O)N[C@@H](CCCCN)C(N)=O [LV-55] (Ac-KKLL[Phe(3,4-F2)]RLK[Phe(3,4-F2)]RK-NH2)
- MHC (minimum hemolytic concentration, lowest concentration causing 10% hemolysis) (rabbit red blood cells): >1000 µg/mL

Compound: COc1cccc(OC)c1C(=O)N[C@@H]1C(=O)N2[C@@H]1SC(C)(C)[C@@H]2C(=O)O [Methicillin, reference compound]
- Inhibition rate against Methicillin-resistant Staphylococcus aureus (%) [2]: 1.05%
- Inhibition rate against Methicillin-sensitive Staphylococcus aureus (%) [3]: 84.83%

- MIC against Staphylococcus aureus (NRS 384) ([1]; NRS 384): 4 µg/mL
Compound: Ac-RKLLFRLKFRK-NH2 [LV-32]
- MHC (minimum hemolytic concentration, lowest concentration causing 10% hemolysis) (rabbit red blood cells): >1000 µg/mL

Compound: KFFRKLKKSVKKRAKKFFKKPRVIGVSIPF [Cbf-K16, reference compound]
- Trypsin MIC ([4]; MIC vs Staphylococcus aureus (NRS 384) after trypsin treatment 1:10 (w/w)): >128 µg/mL
- MIC values after trypsin treatment ([4]; trypsin:AMP 1:10 (w/w), Staphylococcus aureus (NRS 384)): lost its antimicrobial activity
- MIC against Staphylococcus aureus (NRS 384) ([1]; Staphylococcus aureus (NRS 384)): 32 µg/mL

From patent US20250304620A1, “ANTIMICROBIAL PEPTIDE AND APPLICATION THEREOF” (priority 2023, published 2025)
